From patent US8337903B2, “Antitumoral agents with a benzophenanthridine structure and formulations containing them” (Indena S.p.A., priority 2008, dated 2012)

Tests used:
melanoma stem cells = experiment: in vitro inhibiting activity towards melanoma stem cells; type: cell-based; conditions: concentration of 200 ng/ml
Source text: (§1) Its behaviour towards other oncological stem cells is identical. These alkaloids can consequently be considered new-generation antitumoral agents, which are able to treat human tumors effectively. For tumors of the colon, liver, pancreas and cervix the most appropriate form is the salt with luteic acid dispersed in a suitable vehicle, whereas for the treatment of skin tumors such as melanoma, the salt with a phosphatidic acid can advantageously be administered topically directly to the area affected by the tumor.

[1] = test system: oropharynx, head and neck tumors, melanoma and cervical tumors; experiment: treatment of oropharynx, head and neck tumors, melanoma and cervical tumors; type: in vivo; conditions: oral and topical administration; compared with the unsalified alkaloid
Source text: The product most suitable for oral and topical administration is the salt of sanguinarine with luteic acid.

colon stem cells = experiment: in vitro inhibiting activity towards colon stem cells; type: cell-based; conditions: concentration of 200 ng/ml
Source text: as §1

luteic acid sanguinarine salt [salt of sanguinarine with luteic acid]
inhibiting activity towards melanoma stem cells (melanoma stem cells): potent inhibiting activity
effectiveness in the treatment of tumors [1]: particularly effective
inhibiting activity towards colon stem cells (colon stem cells): potent inhibiting activity
